Experimental data published in patent publication US7528274B2, “Acylthiols and component thiol compositions as anti-HIV and anti-retroviral agents” (The United States of America as represented by the …, priority 2001, dated 2009).
Like-named read-outs stand apart in the source and are kept apart here.

Columns and labels:
[1] = tested on: HIV-1RF; assay: XTT cytoprotection assay, CEM-SS cells infected with HIV-1RF; assay type: cell-based; conditions: for EC50: read-out: EC50 (50% cytoprotection)
Excerpt: (§1) One exemplary means to determine antiviral activity is with CEM-SS cells and virus (e.g., HIV-1RF) (MOI=0.01) using the XTT (2,3-bis[2-methoxy-4-nitro-5-sulfophenyl]-5-[(phenylamino)carbonyl]-2H-tetrazolium hydroxide) cytoprotection assay, as described by Rice (1993) PNAS 90:9721-9724, and Rice (1997) Antimicrob. Agents Chemother. […] Briefly, cells are infected with HIV-1RF (or other virus to be tested) in the presence of various dilutions of test compounds or control compounds. The cultures are incubated for seven days. […] The cell death is measured by XTT dye reduction. XTT is a soluble tetrazolium dye that measures mitochondrial energy output, similar to MTT. […] Individual assays are done in duplicate using a sister plate method.
as §1, with “{2,3-bis[2-methoxy-4-nitro-5-sulfophenyl]-5- -[(phenylamino)carbonyl]-2H-tetrazolium hydroxide}” for “(2,3-bis[2-methoxy-4-nitro-5-sulfophenyl]-5-[(phenylamino)carbonyl]-2H-tetrazolium hydroxide)”, “Proc. Natl. Acad. Sci. USA 90: 9721-9724,” for “PNAS 90:9721-9724,”, “Agents &” for “Agents”, “and controls.” for “or control compounds.”, “method. […] Compound numbers therein refer to the numbers used in FIG. 1.” for “method.”

[2] = XTT assay, cytotoxicity (cellular growth inhibition) in CEM-SS cells; assay type: cell-based; conditions: human
Excerpt: as §1
as §1, with “{2,3-bis[2-methoxy-4-nitro-5-sulfophenyl]-5- -[(phenylamino)carbonyl]-2H-tetrazolium hydroxide}” for “(2,3-bis[2-methoxy-4-nitro-5-sulfophenyl]-5-[(phenylamino)carbonyl]-2H-tetrazolium hydroxide)”, “Proc. Natl. Acad. Sci. USA 90: 9721-9724,” for “PNAS 90:9721-9724,”, “Agents &” for “Agents”, “and controls.” for “or control compounds.”, “method. […] Compound numbers therein refer to the numbers used in FIG. 1.” for “method.”

[3] = Human immunodeficiency virus 1, 168 h, HIV-1RF, CEM-SS cells, seven days, XTT
[4] = Human immunodeficiency virus 1, CEM-SS, 168 h

Structure (SMILES)	EC50 [1, 3]	EC50 ([1]; HIV-1RF, CEM-SS cells, seven days, XTT)	Therapeutic Index ([1]; HIV-1RF, CEM-SS cells)	IC50 at 7 days [2]	EC50 [1, 4]
COc1cc(C(=O)Sc2ccccc2C(=O)NCCC(N)=O)cc(OC)c1OC [Compound 10]	3.8 µM	–	>53	> 200 µM	–
NC(=O)CCNC(=O)c1ccccc1SC(=O)OCCBr [Compound 102]	5.21 µM	–	60.6	> 316 µM	–
Cc1ccc(C(=O)Sc2ccccc2C(=O)NCCC(N)=O)cc1 [Compound 21]	5.2 µM	–	38	197 µM	–
NC(=O)CNC(=O)c1ccccc1SC(=O)NCCBr [Compound 110]	–	–	3.4	5.23 µM	1.53 µM
NC(=O)C1CN1C(=O)c1ccccc1SC(=O)NC1CCCC1 (stereo not drawn) [Compound 132]	–	0.81 µM	–	–	–
NC(=O)CCNC(=O)c1ccccc1SC(=O)c1ccccc1 [Compound 8]	3.3 µM	–	205	676 µM	–
NC(=O)CCNC(=O)c1cccc(SC(=O)c2cccnc2)c1 [Compound 18]	149 µM	–	>6.7	> 1000 µM	–
C[C@H](NC(=O)c1ccccc1SC(=O)NCCBr)C(N)=O [Compound 112]	–	–	5	5.2 µM	1.05 µM
CC(C)(C)C(=O)Sc1cccc(C(=O)NCCC(N)=O)c1 [Compound 17]	> 100 µM	–	–	112 µM	–
C[C@@H](NC(=O)c1ccccc1SC(=O)OCCCCCl)C(N)=O [Compound 82]	2.94 µM	–	68	200 µM	–
Cc1cccc(C(=O)Sc2ccccc2C(=O)NCCC(N)=O)c1 [Compound 20]	3.6 µM	–	38	135 µM	–
NC(=O)CCNC(=O)c1ccc(Cl)cc1SC(=O)c1cccnc1 [Compound 25]	31.8 µM	–	18	573 µM	–
C[C@@H](NC(=O)c1ccccc1SC(=O)NCCBr)C(N)=O [Compound 89]	–	–	8.7	8 µM	0.92 µM

Further lines, with some results ahead:

EC50 [1, 3]	EC50 ([1]; HIV-1RF, CEM-SS cells, seven days, XTT)	Structure (SMILES)	Therapeutic Index ([1]; HIV-1RF, CEM-SS cells)	IC50 at 7 days [2]	EC50 [1, 4]
0.71 µM	–	CSC(=N)Sc1ccccc1C(=O)NCCC(N)=O [Compound 137]	28.2	20 µM	–
0.59 µM	–	CCOC(=O)CCNC(=O)Sc1ccccc1C(=O)NCCC(N)=O [Compound 115]	196	117 µM	–
2.9 µM	–	NC(=O)CCNC(=O)c1ccccc1SC(=O)c1cccnc1 [Compound 19]	161	461 µM	–
0.72 µM	–	NC(=O)CNC(=O)c1ccccc1SC(=O)NCCCCl [Compound 85]	153	110 µM	–
0.42 µM	–	CCNC(=O)Sc1ccccc1C(=O)N[C@H](C)C(N)=O [Compound 114]	203	86 µM	–
0.53 µM	–	CCOC(=O)CNC(=O)Sc1ccccc1C(=O)N[C@@H](C)C(N)=O [Compound 116]	147	77.6 µM	–
0.8 µM	–	C[C@H](NC(=O)c1ccccc1SC(=O)NCCCCl)C(N)=O [Compound 86]	140	112 µM	–
0.53 µM	–	CSC(=N)Sc1ccccc1C(=O)N[C@H](C)C(N)=O [Compound 139]	37.7	20 µM	–
1.6 µM	–	CC(C)(C)NC(=O)Sc1ccc(Cl)cc1C(=O)NCCC(N)=O [Compound 140]	7.1	11.3 µM	–
0.76 µM	–	CCCCCCNC(=O)Sc1ccccc1C(=O)N[C@H](C)C(N)=O [Compound 121]	107	81 µM	–
0.55 µM	–	CCCNC(=O)Sc1ccccc1C(=O)NCCC(N)=O [Compound 97]	53	29 µM	–
1.58 µM	–	NS(=O)(=O)c1ccc(CNC(=O)c2ccccc2SC(=O)Oc2ccc([N+](=O)[O-])cc2)cc1 [Compound 78]	36	57 µM	–
2.07 µM	–	C[C@H](NC(=O)c1ccccc1SC(=O)OCCCCCl)C(N)=O [Compound 81]	97	200 µM	–
